{"source": "paper PMC8904520", "about": "“Characterization of a small-molecule inhibitor targeting NEMO/IKKβ to suppress colorectal cancer growth” (Signal Transduction and Targeted Therapy, 2022)", "key": {"[1]": {"test_system": "colorectal cancer cells (LoVo, RKO, SW620, HCT15, HCT116)", "assay": "CCK-8 cell viability assay, colorectal cancer cells", "assay_type": "cell-based, human", "conditions": "48 h", "protocol": "Cell viability was determined using the CCK-8 assay. Briefly, 5×10³ cells were seeded into 96-well culture plates, allowed to adhere for overnight, and then changed to fresh medium containing various concentrations of SHK (0, 0.5, 1, 2 and 5 µM) dissolved in DMSO (final concentration, 0.1%). After incubation for 48 h, the CCK-8 reagent was added, and the absorbance was measured at 450 nm using an EnSpire® Multimode Plate Reader (Perkin Elmer, USA). The cell viability in the vehicle control groups was defined as 100%. Each assay was carried out in triplicate."}, "LoVo xenograft tumor": {"test_system": "LoVo xenograft tumor", "assay": "LoVo xenograft tumor model", "assay_type": "in vivo, athymic nude mice", "conditions": "mice", "protocol": "Female athymic nude mice aged 5 weeks were purchased from Beijing Vital River Laboratory Animal Technology Co., Ltd., and kept in the SPF Laboratory Animal Center of Dalian Medical University (Dalian, China). All animals were given free access to sterilized food and water and were habituated for 7 days before the experiments. All procedures were carried out in strict accordance with the recommendations established by the Animal Care and Ethics Committee of Dalian Medical University as well as the guidelines promulgated in the U.S. National Institutes of Health Guide for the Care and Use of Laboratory Animals. LoVo cells (LoVo/wt and LoVo/ mut, 5×10^6 in 100 μL PBS) were injected subcutaneously near the axillary fossa of each nude mouse. Two weeks later, when the formed tumor reached 3-4mm, the animals were divided randomly into three groups with 5 mice in each group. […] The tumors were measured with a caliper once every two days, and the tumor volume was calculated using the formula V = 1/2 (width^2 × length). The body weight of the animals was also recorded. After treatment with SHK for 15 days, all experimental mice were sacrificed and the tumors from each mouse were excised and their weight was measured. To determine the expression of the indicated proteins, the tumor tissues were fixed with 10% neutral formalin and embedded in paraffin. Then, 4 μm sections were stained with hematoxylin and eosin, in combination with specific antibodies (iNOS (1:100), COX-2 (1:50), IL-6 (1:100)), and TNFα (1:200)). The stained samples were examined under a Leica DM 4000B fluorescence microscope equipped with a digital camera. The other parts of the tumors were used to prepare tumor tissue lysates for western blot analysis."}, "IKKβ": {"molecular_target": "T1, IKKβ (Homo sapiens, UniProt O14920)", "T1 construct": "endogenous in cells; host or cells: LoVo cells", "T1 sequence (Q9Y6K9 whole entry partner)": "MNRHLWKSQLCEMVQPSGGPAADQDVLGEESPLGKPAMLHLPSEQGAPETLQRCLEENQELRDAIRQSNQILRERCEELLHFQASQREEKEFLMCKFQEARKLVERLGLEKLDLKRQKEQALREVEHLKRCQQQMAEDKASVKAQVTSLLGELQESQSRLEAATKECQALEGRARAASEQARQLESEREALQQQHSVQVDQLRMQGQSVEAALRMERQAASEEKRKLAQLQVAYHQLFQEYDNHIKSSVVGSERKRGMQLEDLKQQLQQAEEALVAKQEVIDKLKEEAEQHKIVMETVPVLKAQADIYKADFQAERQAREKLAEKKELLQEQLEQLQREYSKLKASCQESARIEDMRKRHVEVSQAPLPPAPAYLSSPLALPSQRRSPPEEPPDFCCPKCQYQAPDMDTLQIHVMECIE", "T1 sequence (O14920 whole entry)": "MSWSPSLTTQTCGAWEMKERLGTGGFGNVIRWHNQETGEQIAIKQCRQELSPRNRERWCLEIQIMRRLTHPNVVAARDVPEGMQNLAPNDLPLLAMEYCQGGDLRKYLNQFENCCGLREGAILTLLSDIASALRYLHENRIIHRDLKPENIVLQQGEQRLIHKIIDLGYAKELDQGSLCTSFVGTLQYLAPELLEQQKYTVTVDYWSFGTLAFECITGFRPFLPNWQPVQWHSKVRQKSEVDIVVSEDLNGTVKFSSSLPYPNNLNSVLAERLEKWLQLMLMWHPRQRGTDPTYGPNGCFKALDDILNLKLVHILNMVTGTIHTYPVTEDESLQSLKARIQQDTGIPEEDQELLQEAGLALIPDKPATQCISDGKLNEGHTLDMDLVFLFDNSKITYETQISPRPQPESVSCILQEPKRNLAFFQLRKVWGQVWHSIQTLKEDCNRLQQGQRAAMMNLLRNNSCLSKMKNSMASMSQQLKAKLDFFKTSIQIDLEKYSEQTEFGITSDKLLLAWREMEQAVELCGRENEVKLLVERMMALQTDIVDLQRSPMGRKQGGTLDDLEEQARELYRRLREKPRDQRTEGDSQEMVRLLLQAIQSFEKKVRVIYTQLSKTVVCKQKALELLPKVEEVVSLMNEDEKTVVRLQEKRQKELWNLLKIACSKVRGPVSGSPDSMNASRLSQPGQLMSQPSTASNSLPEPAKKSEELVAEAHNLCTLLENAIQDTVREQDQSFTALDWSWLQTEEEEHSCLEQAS", "assay": "IKKβ kinase activity in LoVo cells (spectrophotometric kit)", "assay_type": "cell-based", "protocol": "Fig. 3 Effect of SHK on NEMO/IKKβ/NF-κB signaling. a The protein levels of NEMO, p-IKKβ/IKKβ, and p-IκBα/IκBα in LoVo cells treated with the indicated doses of SHK were analyzed by western blotting. b The protein levels of NEMO, p-IKKβ/IKKβ, p-IκBα/IκBα protein in tumor tissues were analyzed by western blotting. c LoVo cells were co-transfected with pNFκB-luc containing a Renilla luciferase reporter (as internal control) for 24 h and then treated with SHK for 48 h. Luciferase activity was determined using a dual-luciferase reporter assay system. d The IKKβ kinase activity was assessed using a spectrophotometric quantitative detection kit in LoVo cells. The relative activity was calculated using the provided formula. e The subcellular localizations of p50/p65 in LoVo cells following 48 h of treatment with SHK was examined by confocal microscopy analysis. The protein levels of p65 and p50 in nucleus (f) and whole-cell lysates (g) were measured by western blot analysis. Lamin B1 and β-actin were used as controls for sample loading. h The binding of p65 and p50 to a COX-2 promoter probe was analyzed using a streptavidin-agarose pull-down assay. The data are presented as the means ± SD of at least three separate experiments. (*p < 0.05, **p < 0.01, SHK treatment group vs. vehicle control group)"}, "MBP-IKKβ (701–745)": {"molecular_target": "T2, MBP-IKKβ (701–745) (Homo sapiens, UniProt O14920)", "T2 construct": "made in house; host or cells: E. coli BL21(DE3)", "T2 sequence (O14920 701-745)": "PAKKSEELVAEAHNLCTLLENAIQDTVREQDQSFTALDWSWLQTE", "assay": "SPR affinity assay on immobilized MBP-IKKβ", "assay_type": "binding", "protocol": "The sensor surface was activated with a 7 min injection of a mixture comprising 50 mM N-hydroxysuccinimide (NHS) and 200 mM 1-ethyl-3-(3- dimethylaminopropyl) carbodiimide (EDC). Then, 33 μg/mL of IKKβ was injected to reach the target level of 500 RU and the surface was blocked with 1 M ethanolamine, pH 8.5. A series of concentrations of NEMO or SHK were injected into the flow system and analyzed for 90 or 120 s, followed by dissociation for 90 or 600 s. All binding analyses was performed in phosphate-buffered saline (PBS, pH 7.4) with 0.05% (v/v) Tween-20 at 25 °C. Prior to analysis, double reference subtractions were made to eliminate bulk refractive index changes, injection noise, and data drift. The binding affinity was determined by fitting to a Langmuir 1:1 binding model in the Biacore Evaluation software (GE Healthcare)."}, "[2]": {"molecular_target": "T3, NEMO/IKKβ interaction (GST-NEMO1–196 / biotinylated IKKβ peptide) (Homo sapiens, UniProt Q9Y6K9)", "T3 construct": "made in house; host or cells: E. coli BL21(DE3) (GST-NEMO)", "T3 sequence (Q9Y6K9 1-196)": "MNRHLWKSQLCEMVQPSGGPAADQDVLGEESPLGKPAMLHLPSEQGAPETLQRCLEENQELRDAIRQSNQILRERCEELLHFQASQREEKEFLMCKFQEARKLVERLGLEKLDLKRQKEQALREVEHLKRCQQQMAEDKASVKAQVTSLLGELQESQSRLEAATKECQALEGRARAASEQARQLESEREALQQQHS", "assay": "FRET assay of NEMO/IKKβ binding", "conditions": "10 nM GST-NEMO1–196, 200 nM biotinylated IKKβ peptide, read-out: IC50 for impairing NEMO/IKKβ interaction", "protocol": "A FRET assay was used to detect the effects of SHK on NEMO/IKKβ binding. 10 nM GST-NEMO1–196 was bound to 200 nM biotinylated IKKβ peptide in binding buffer (50 Mm Tris-HCl, 150 mM NaCl, and 1x cocktail, pH 7.4), and increasing amounts of SHK were titrated into the mixture, incubated for 30 min at room temperature. The detection agent (50 nM streptavidin-conjugated APC and 10 nM LANCE^TM Europium-W1024 labeled anti-GST, Perkin Elmer) was incubated for 30 min at room temperature, and the FRET signal was read on a multifunctional microplate reader (BioTek Synergy NEO)."}, "LoVo and RKO cells": {"test_system": "LoVo and RKO cells", "assay": "Colony formation assay", "assay_type": "cell-based, human", "protocol": "Detached cells (1 × 10^3 per well) were seeded into six-well plates containing 2 mL of growth medium with 10% FBS and cultured for 24 h. Then, the medium was removed and the cells were treated with various concentrations of SHK. After 24 h, the cells were washed with PBS and supplemented with fresh growth medium. The cells were routinely incubated for about two weeks until colonies were large enough to be visualized. Then, the colonies were stained with 0.1% crystal violet and counted."}}, "note": "Where two headings read alike, the source gives them in different places.", "data": [{"smiles": "CC(C)=CC[C@@H](O)C1=CC(=O)c2c(O)ccc(O)c2C1=O", "note": "[SHK, Shikonin]", "values": [{"measurement": "IC50", "setting": "[1]; Homo sapiens, CCK-8, range over cell lines, read-out: IC50 for inhibition of proliferation in colorectal cancer cells", "value": "0.6 to 2.5", "unit": "µM"}, {"measurement": "growth inhibition of cancer cell lines", "setting": "[1]; LoVo, RKO, SW620, HCT15, HCT116", "value": "dose-dependent growth inhibition"}, {"measurement": "tumor volume", "setting": "LoVo xenograft tumor; 2.5 and 5 mg/kg daily", "value": "dramatically decreased"}, {"measurement": "tumor weight", "setting": "LoVo xenograft tumor; 2.5 and 5 mg/kg daily", "value": "dramatically decreased"}, {"measurement": "side effects (body weight)", "setting": "LoVo xenograft tumor; 2.5 and 5 mg/kg", "value": "slight side effects"}, {"measurement": "phosphorylation and kinase activity of IKKβ", "setting": "IKKβ", "value": "suppressed the phosphorylation and kinase activity of IKKβ in a dose-dependent manner"}, {"measurement": "Kd", "setting": "MBP-IKKβ (701–745); KD for MBP-IKKβ (701–745), SPR", "value": "8.19 ± 1.92", "unit": "µM"}, {"measurement": "Kd", "setting": "MBP-IKKβ (701–745); approximate summary value in discussion (SPR and MST), read-out: KD for either IKKβ or NEMO alone", "value": "~10", "unit": "µM"}, {"measurement": "IC50", "setting": "[2]", "value": "0.231 ± 0.00939", "unit": "µM"}, {"measurement": "colony formation", "setting": "LoVo and RKO cells", "value": "colony formation suppression"}]}]}
